From publication PMC5840262, “Design, Synthesis and Evaluation of Branched RRWQWR-Based Peptides as Antibacterial Agents Against Clinically Relevant Gram-Positive and Gram-Negative Pathogens” (Frontiers in Microbiology, 2018)
In brackets after ≈: the same amount, converted by molar mass. Bridge positions count the residues as written; N and C are the ends. Square brackets hold non-standard residues; d marks the D form. Peptide text beside a SMILES is read from it. I, II: the chains in the order shown. Ahx = NCCCCCC(=O)O

Tests used:
Assay type in all cases: cell-based
[1] = tested on: Enterococcus faecium clinical isolate 1,040
Procedure: (§1) For the clinical isolates, we used 20 different isolates from the Public Health Reference Laboratory collection of the Secretaría de Salud del Distrito (SdSD; Bogotá, Colombia). The samples were collected from June to December 2016. For each isolate, the patient parameters (age, gender and location) and the culture site were recorded for epidemiologic monitoring (Table 1). All isolates had been previously tested for antibiotic sensitivity at the Public Health Microbiology Laboratory using either the Phoenix™ system (Gram-positive) or the VITEK 2 system (Gram-negative).
(§2) We screened all five peptides against the ATCC reference strains and the clinical isolates according to Method M7-A7 of the National Committee for Clinical Laboratory Standards (CLSI, [2007]). The MIC50 and MBC values were determined using a broth microdilution and growth inhibition method previously reported by Leon-Calvijo et al. ([2015]), with some modifications (Wiegand et al., [2008]). Briefly, the MIC50 experiments comprised a liquid-inhibition growth assay in a sterile, untreated, 96-well flat-bottom tissue culture plate. The bacteria were cultured overnight n Mueller Hinton agar; three colonies were transferred to 8 mL of Mueller Hilton broth and incubated at 37°C until the mid-exponential phase of growth. The turbidity of the cultures was measured and adjusted spectrophotometrically to a McFarland standard of 0.5, and then diluted to a final concentration of 5 × 10^7 colony forming units (CFU) per well. Stock solutions (2,000 μM) of each test peptide were serially diluted to final concentrations (per well) of 200, 100, 50, 25, 12.5, and 6.25 μM. Each concentration was evaluated in duplicate and each assay was performed in triplicate.
(§3) Wells containing Mueller Hilton broth with bacterial inoculum only served as bacterial-growth controls. Additional controls included Mueller Hilton broth alone (as blank) and Mueller Hilton broth with ciprofloxacin (2 μg/mL; as positive control). The microplate was incubated for 24 h at 37°C, and growth inhibition was measured by monitoring the optical density at 620 nm (OD620). The MIC50 was defined as the peptide concentration at which bacterial growth was inhibited by 50%.
(§4) To determine the MBC, an aliquot from each well of the MIC50 assay was spread onto Mueller Hilton agar. After 18 h at 37°C, the concentration that inhibited bacterial growth was determined. Each of these tests was performed four times. MBC was defined as the lowest concentration of peptide at which the number of bacteria was reduced by 99.9% in vitro (European Committee for Antimicrobial Susceptibility Testing, [2000]).

[2] = tested on: Enterococcus faecium clinical isolate 1,225
Procedure: as §1, §2, §3, §4

[3] = tested on: Enterococcus faecium clinical isolate 1,461
Procedure: as §1, §2, §3, §4

[4] = tested on: Enterococcus faecium clinical isolate 1,462
Procedure: as §1, §2, §3, §4

[5] = tested on: Enterococcus faecium clinical isolate 550
Procedure: as §1, §2, §3, §4

[6] = tested on: Klebsiella pneumoniae clinical isolate 49,644
Procedure: as §1, §2, §3, §4

[7] = tested on: Klebsiella pneumoniae clinical isolate 50,181
Procedure: as §1, §2, §3, §4

[8] = tested on: Klebsiella pneumoniae clinical isolate 51,009
Procedure: as §1, §2, §3, §4

[9] = tested on: Klebsiella pneumoniae clinical isolate 51,048
Procedure: as §1, §2, §3, §4

[10] = tested on: Pseudomonas aeruginosa clinical isolate 48,220
Procedure: as §1, §2, §3, §4

[11] = tested on: Pseudomonas aeruginosa clinical isolate 48,221
Procedure: as §1, §2, §3, §4

[12] = tested on: Pseudomonas aeruginosa clinical isolate 48,458
Procedure: as §1, §2, §3, §4

[13] = tested on: Pseudomonas aeruginosa clinical isolate 48,526
Procedure: as §1, §2, §3, §4

[14] = tested on: Staphylococcus aureus clinical isolate 43,062
Procedure: as §1, §2, §3, §4

[15] = tested on: Staphylococcus aureus clinical isolate 43,337
Procedure: as §1, §2, §3, §4

[16] = tested on: Staphylococcus aureus clinical isolate 48,575
Procedure: as §1, §2, §3, §4

[17] = tested on: Staphylococcus aureus clinical isolate 48,577
Procedure: as §1, §2, §3, §4

- MIC50 ([1]; clinical isolate 1,040, 24 h): >100 µM
- MIC50 ([2]; clinical isolate 1,225, 24 h): >100 µM
- MIC50 ([3]; clinical isolate 1,461, 24 h): >100 µM
- MIC50 ([4]; clinical isolate 1,462, 24 h): 49.8 µM (≈ 109 µg/mL)
- MIC50 ([5]; clinical isolate 550, 24 h): >100 µM
- MIC50 ([6]; clinical isolate 49,644, 24 h): 12.3 µM (≈ 27 µg/mL)
- MIC50 ([7]; clinical isolate 50,181, 24 h): 6.6 µM (≈ 14.5 µg/mL)
- MIC50 ([8]; clinical isolate 51,009, 24 h): 5.6 µM (≈ 12.3 µg/mL)
- MIC50 ([9]; clinical isolate 51,048, 24 h): 5.7 µM (≈ 12.5 µg/mL)
- MIC50 ([10]; clinical isolate 48,220, 24 h): 50.0 µM (≈ 110 µg/mL)
- MIC50 ([11]; clinical isolate 48,221, 24 h): 64.2 µM (≈ 141 µg/mL)
- MIC50 ([12]; clinical isolate 48,458, 24 h): 75.0 µM (≈ 165 µg/mL)
- MIC50 ([13]; clinical isolate 48,526, 24 h): 36.3 µM (≈ 79.7 µg/mL)
- MIC50 ([14]; clinical isolate 43,062, 24 h): 13.5 µM (≈ 29.7 µg/mL)
- MIC50 ([15]; clinical isolate 43,337, 24 h): 13.5 µM (≈ 29.7 µg/mL)
- MIC50 ([16]; clinical isolate 48,575, 24 h): 13.4 µM (≈ 29.4 µg/mL)
- MIC50 ([17]; clinical isolate 48,577, 24 h): 12.9 µM (≈ 28.3 µg/mL)
Compound: N=C(N)NCCC[C@H](NC(=O)[C@H](Cc1c[nH]c2ccccc12)NC(=O)[C@H](CCC(N)=O)NC(=O)[C@H](Cc1c[nH]c2ccccc12)NC(=O)[C@H](CCCNC(=N)N)NC(=O)[C@@H](N)CCCNC(=N)N)C(=O)NCCCC[C@H](NC(=O)[C@H](CCCNC(=N)N)NC(=O)[C@H](Cc1c[nH]c2ccccc12)NC(=O)[C@H](CCC(N)=O)NC(=O)[C@H](Cc1c[nH]c2ccccc12)NC(=O)[C@H](CCCNC(=N)N)NC(=O)[C@@H](N)CCCNC(=N)N)C(=O)NCCCCCC(N)=O [LfcinB (20–25)2] (I: H-RRWQWRK[Ahx]-NH2 / II: H-RRWQWR; amide I:7-II:C; N-terminus assumed)
- MBC ([1]; clinical isolate 1,040, 18 h): >100 µM
- MBC ([2]; clinical isolate 1,225, 18 h): >100 µM
- MBC ([3]; clinical isolate 1,461, 18 h): >100 µM
- MBC ([4]; clinical isolate 1,462, 18 h): >100 µM
- MBC ([5]; clinical isolate 550, 18 h): >100 µM
- MBC ([6]; clinical isolate 49,644, 18 h): 50.0 µM (≈ 110 µg/mL)
- MBC ([7]; clinical isolate 50,181, 18 h): 100.0 µM (≈ 220 µg/mL)
- MBC ([8]; clinical isolate 51,009, 18 h): 25.0 µM (≈ 54.9 µg/mL)
- MBC ([9]; clinical isolate 51,048, 18 h): 100.0 µM (≈ 220 µg/mL)
- MBC ([10]; clinical isolate 48,220, 18 h): 50.0 µM (≈ 110 µg/mL)
- MBC ([11]; clinical isolate 48,221, 18 h): >100 µM
- MBC ([12]; clinical isolate 48,458, 18 h): >100 µM
- MBC ([13]; clinical isolate 48,526, 18 h): >100 µM
- MBC ([14]; clinical isolate 43,062, 18 h): 50.0 µM (≈ 110 µg/mL)
- MBC ([15]; clinical isolate 43,337, 18 h): 25.0 µM (≈ 54.9 µg/mL)
- MBC ([16]; clinical isolate 48,575, 18 h): 25.0 µM (≈ 54.9 µg/mL)
- MBC ([17]; clinical isolate 48,577, 18 h): 50.0 µM (≈ 110 µg/mL)
